The values that follow come from ChEMBL document CHEMBL1149409, “Inhibition of GABA shunt enzymes' activity by 4-hydroxybenzaldehyde derivatives” (Bioorg Med Chem Lett, 2006).

For assay [1], the target named is 4-aminobutyrate aminotransferase, mitochondrial (Homo sapiens, UniProt P80404). Kind of assay: Inhibitory activity against GABAT.
Assay [2] concerns the target T1, Succinate-semialdehyde dehydrogenase, mitochondrial (Homo sapiens, UniProt P51649).
T1 sequence (P51649 whole entry): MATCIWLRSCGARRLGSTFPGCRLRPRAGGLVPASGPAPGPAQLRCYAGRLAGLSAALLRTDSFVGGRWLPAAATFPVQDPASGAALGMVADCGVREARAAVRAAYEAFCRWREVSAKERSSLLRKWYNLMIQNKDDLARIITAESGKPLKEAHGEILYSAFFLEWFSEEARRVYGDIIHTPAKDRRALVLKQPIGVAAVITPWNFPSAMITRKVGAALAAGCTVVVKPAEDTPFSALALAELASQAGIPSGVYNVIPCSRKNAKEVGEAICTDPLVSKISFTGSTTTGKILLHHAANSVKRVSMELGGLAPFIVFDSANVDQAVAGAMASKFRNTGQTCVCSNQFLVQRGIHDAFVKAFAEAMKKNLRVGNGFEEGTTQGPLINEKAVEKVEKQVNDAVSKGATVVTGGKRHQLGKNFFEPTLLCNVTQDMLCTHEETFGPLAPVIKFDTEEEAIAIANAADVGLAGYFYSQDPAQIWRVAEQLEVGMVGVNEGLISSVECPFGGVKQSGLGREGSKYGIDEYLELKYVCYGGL
In words: Inhibitory activity against SSADH.

4-aminobutyrate aminotransferase, mitochondrial, sequence (P80404 whole entry): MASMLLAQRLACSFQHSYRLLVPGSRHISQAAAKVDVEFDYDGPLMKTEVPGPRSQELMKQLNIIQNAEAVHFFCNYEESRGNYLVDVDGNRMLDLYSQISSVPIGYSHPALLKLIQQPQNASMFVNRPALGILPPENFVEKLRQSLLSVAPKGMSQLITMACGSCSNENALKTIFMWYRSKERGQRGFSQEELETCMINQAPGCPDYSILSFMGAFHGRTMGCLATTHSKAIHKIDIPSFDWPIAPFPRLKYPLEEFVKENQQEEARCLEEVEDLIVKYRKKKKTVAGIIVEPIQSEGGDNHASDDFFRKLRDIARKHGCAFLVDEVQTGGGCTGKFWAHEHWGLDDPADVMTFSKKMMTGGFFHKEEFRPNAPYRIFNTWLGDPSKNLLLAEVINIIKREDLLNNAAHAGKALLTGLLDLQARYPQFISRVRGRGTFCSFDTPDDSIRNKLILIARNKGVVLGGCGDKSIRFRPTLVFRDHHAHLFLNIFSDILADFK

Regarding `COc1cc(/C=N/O)ccc1O`, the IC50 in assay [1] and in assay [2] was greater than 1000 µM throughout.

Regarding `NCc1ccc(O)cc1`, the IC50 (usually the concentration that inhibits the measured activity by half) in assay [1] is 15.4 µM; in assay [2], greater than 1000 µM.

As for `O/N=C/c1ccc(O)cc1`, the IC50 in assay [1] and in assay [2] was greater than 1000 µM throughout.

`O=Cc1ccc(O)c([N+](=O)[O-])c1`: the figures for the IC50 in assay [1] and in assay [2] were 15.5 µM and 33.1 µM, respectively.

In the case of `C=CC(=O)c1ccc(O)cc1`, the IC50 worked out at 5.48 µM in assay [1] and 0.35 µM in assay [2].

On to `CC(=O)c1ccc(O)cc1` [4-HYDROXYACETOPHENONE], for which the values for the IC50 in assay [1] and in assay [2] were 188 µM and 166 µM, respectively.

In the case of `O=Cc1ccc(O)cc1` [4-HYDROXYBENZALDEHYDE], the values for the IC50 in assay [1] and in assay [2] were 16.5 µM and 24.7 µM, respectively.

For the molecule `Nc1ccc(C(=O)O)cc1` [AMINOBENZOIC ACID], the IC50 in assay [1] and in assay [2] was greater than 1000 µM in each case.

For `COc1ccc(C=O)cc1` [ANISALDEHYDE], the IC50 in assay [1] and in assay [2] was greater than 1000 µM throughout.

In the case of `OCc1ccc(O[C@@H]2O[C@H](CO)[C@@H](O)[C@H](O)[C@H]2O)cc1` [GASTRODIN], the IC50 in assay [1] and in assay [2] was greater than 1000 µM each time.

Take `O=Cc1ccc(O[C@@H]2O[C@H](CO)[C@@H](O)[C@@H](O)[C@H]2O)cc1` [HELICIDE]: the IC50 in assay [1] and in assay [2] was greater than 1000 µM each time.

For `O=C(O)c1ccc(O)cc1` [PARABEN], the IC50 in assay [1] and in assay [2] was greater than 1000 µM in each case.

Consider `OCc1ccc(O)cc1` [PARAHYDROXYBENZYL ALCOHOL], for which the IC50 in assay [1] and in assay [2] was greater than 1000 µM each time.

Take `CCC(=O)c1ccc(O)cc1` [PAROXYPROPIONE]: the IC50 in assay [1] was determined as 176 µM; in assay [2] it was 293 µM.

Regarding `COc1cc(C=O)ccc1O` [VANILLIN], the IC50 in assay [1] came to 17.1 µM; in assay [2] it was 15.6 µM.
